System: B10.D2 responder T cells with APC presenting BALB/c mH antigens
Test: Proliferative responses to minor H antigens in vitro, Cop 1 present in the assay
Assay type: cell-based, mice
Details: for cpm (Cop 1 Assay Concentration): Resp. + APC
Experimental: B10.D2 mice were injected ip. with irradiated (20 Gy) BALB/c spleen cells 72 hours prior to the assay. B10.D2 spleen cells were harvested, depleted of red blood cells (RBC) and used as irradiated (10 Gy) antigen-presenting cells (APC) presenting BALB/c mH antigens. For the primary assay, APC were plated at 2.5×10^5 cells per well in 96-well round-bottom plates and incubated with 2.5×10^5 nylon-wool-enriched responder T cells (>88% CD3^+ by FACS […]). After 96 hours of incubation, cells were pulsed with 1 μCi [^3H]-thymidine for an additional 16 hours before harvesting. In the secondary assay, irradiated APC were plated at 2.5×10^5 cells/well in 96-well round-bottom plates, preincubated for 24 hours at 37° C. with increasing concentrations of GLAT (2.5–80 μg/well) or with medium alone, and thereafter washed three times before the addition of 2.5×10^5 nylon-wool-enriched responder T cells from naive B10.D2 mice. Culture medium was RPMI 1640, supplemented with 10% pre-screened fetal calf serum, 2 mM glutamine, 50 μM 2-mercaptoethanol, 100 U/ml penicillin, and 100 μg/ml streptomycin.
B10.D2 mice were injected ip with irradiated (20 Gy) BALB/c spleen cells 72 hours prior to the assay. B10.D2 spleen cells were harvested, depleted of RBC and used as irradiated (10 Gy) APC presenting BALB/c mH antigens. APC were plated at 2.5×10^5 cells/well in 96-well round-bottom plates and incubated with 2.5×10^5 nylon-wool-enriched responder T cells (>88% CD3^+ by FACS analysis) from naive B10.D2 mice in the presence or absence of increasing concentrations of Copolymer 1 (Batch I) (2.5–80 μg/well). After 96 hours of incubation, cells were pulsed with 1 μCi [^3H]-thymidine for an additional 16 hours before harvesting. […] Maximum inhibition was 100% at a concentration of 80 μg/well.

Question: How did the “Maximum inhibition of proliferative responses to mH antigens” value (80 μg/well) turn out when Glatiramer acetate [Cop 1] was run?
Answer: 100%

Question: And the “cpm (Cop 1 Assay Concentration)” value (Cop 1 1.5 μg)?
Answer: 124,904 cpm

Question: What about the “cpm (Cop 1 Assay Concentration)” value (Cop 1 5 μg) of the same substance?
Answer: 126,405 cpm

Question: What about the “cpm (Cop 1 Assay Concentration)” value (Cop 1 10 μg) of the same substance?
Answer: 119,866 cpm

Question: What about the “cpm (Cop 1 Assay Concentration)” value (Cop 1 20 μg) of the same substance?
Answer: 75,840 cpm

Question: And the “cpm (Cop 1 Assay Concentration)” value (Cop 1 40 μg)?
Answer: 23,591 cpm

Question: And the “cpm (Cop 1 Assay Concentration)” value (Cop 1 80 μg)?
Answer: 361 cpm
